Measurements published in patent publication US11279681B2, “3-alkyl bicyclic [4,5,0] hydroxamic acids as HDAC inhibitors” (Valo Health, Inc., priority 2015, dated 2022).

biological target: T1, HDAC6 (Homo sapiens, UniProt Q9UBN7); experiment: In vitro histone deacetylase assay: enzymatic HDAC6 electrophoretic mobility shift assay; assay type: biochemical; settings: full length human recombinant HDAC6, 1 nM enzyme, 2 μM peptide substrate RHKK(Ac)-NH2, 25° C.; read-out: Inhibitory Concentration (IC50) Values for Representative Compounds against HDAC6, Activity Range
T1 sequence (Q9UBN7 1-1215): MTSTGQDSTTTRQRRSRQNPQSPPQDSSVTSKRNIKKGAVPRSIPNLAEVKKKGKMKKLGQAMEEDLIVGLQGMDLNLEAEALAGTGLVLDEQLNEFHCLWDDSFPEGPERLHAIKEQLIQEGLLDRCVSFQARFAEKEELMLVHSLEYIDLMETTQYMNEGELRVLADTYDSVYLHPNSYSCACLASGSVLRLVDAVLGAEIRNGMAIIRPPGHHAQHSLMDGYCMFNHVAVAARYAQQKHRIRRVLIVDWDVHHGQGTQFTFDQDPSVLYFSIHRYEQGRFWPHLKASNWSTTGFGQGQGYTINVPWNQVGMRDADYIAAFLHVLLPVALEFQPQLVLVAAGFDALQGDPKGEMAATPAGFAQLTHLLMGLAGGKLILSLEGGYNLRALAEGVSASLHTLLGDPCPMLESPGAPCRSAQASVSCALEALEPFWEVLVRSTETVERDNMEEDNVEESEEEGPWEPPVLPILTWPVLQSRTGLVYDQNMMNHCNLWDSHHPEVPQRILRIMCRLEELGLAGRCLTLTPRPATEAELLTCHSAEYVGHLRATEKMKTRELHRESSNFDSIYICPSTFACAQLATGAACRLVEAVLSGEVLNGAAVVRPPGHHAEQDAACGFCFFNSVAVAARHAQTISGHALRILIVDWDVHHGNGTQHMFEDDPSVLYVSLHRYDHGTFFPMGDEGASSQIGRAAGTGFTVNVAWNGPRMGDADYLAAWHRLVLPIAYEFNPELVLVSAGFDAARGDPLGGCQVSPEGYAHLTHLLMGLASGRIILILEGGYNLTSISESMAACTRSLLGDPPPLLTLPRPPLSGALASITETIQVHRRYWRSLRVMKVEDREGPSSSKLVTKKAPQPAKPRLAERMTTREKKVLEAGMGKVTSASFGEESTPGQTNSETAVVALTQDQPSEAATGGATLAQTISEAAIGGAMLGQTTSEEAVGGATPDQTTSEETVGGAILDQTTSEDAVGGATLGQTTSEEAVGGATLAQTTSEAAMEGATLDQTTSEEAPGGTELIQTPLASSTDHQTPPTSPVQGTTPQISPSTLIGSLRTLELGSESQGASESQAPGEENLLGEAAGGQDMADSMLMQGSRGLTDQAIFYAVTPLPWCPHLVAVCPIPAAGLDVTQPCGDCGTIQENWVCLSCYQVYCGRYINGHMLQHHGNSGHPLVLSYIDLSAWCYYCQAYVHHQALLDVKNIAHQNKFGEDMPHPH
Experimental: The enzymatic HDAC6 assay was performed using electrophoretic mobility shift assay. […] The enzymatic reactions were assembled in 384 well plates in a total volume of 25 μL in a reaction buffer composing: 100 mM HEPES, pH7.5, 25 mM KCl, 0.1% bovine serum albumin, 0.01% Triton X-100, 1% DMSO (from compounds) 2 μM of the fluorescently labeled peptide substrate and enzyme. The enzyme was added at a final concentration of 1 nM. The peptide substrate RHKK(Ac)-NH2 was used. The compounds were tested at 12 concentrations spaced by 3× dilution intervals. Negative control samples (0%-inhibition in the absence of inhibitor) and positive control samples (100%-inhibition) were assembled in replicates of four in each assay plate. The reactions were incubated at 25° C. and quenched by the addition of 45 μL of termination buffer (100 mM HEPES, pH 7.5, 0.01% Triton X-100, 0.05% SDS).
The terminated assay plates were analyzed on LabChip® 3000 microfluidic electrophoresis instrument (Perkin Elmer/Caliper Life Sciences). The fluorescence intensity of the electrophoretically separated de-acetylated product and substrate peptide was measured. Activity in each sample was determined as the product to sum ratio (PSR): P/(S+P), where P is the peak height of the product peptide and S is the peak height of the substrate peptide. Percent inhibition (Pinh) is determined using the following equation:
Pinh=(PSR0%−PSRinh)/(PSR0%−PSR100%)*100, where PSRinh is the product sum ratio in the presence of inhibitor, PSR0% is the average product sum ration in the absence of inhibitor and PSR100% is the average product sum ratio in 100%-inhibition control samples. The IC50 values of inhibitors were determined by fitting the %-inhibition curves with 4 parameter dose-response model using XLfit 4 software.

Compound	IC50
O=C(NO)c1ccc2c(c1)OCCN(Cc1ccccc1)S2(=O)=O	> 500 nM
O=C(NO)c1ccc2c(c1)CN(Cc1nc3ccccc3[nH]1)CCO2	> 500 nM
CC(=O)N1CCCC(CN2CC(=O)Nc3ccc(C(=O)NO)cc3C2)C1 (centres unmarked)	> 500 nM
O=C1CN(Cc2ccccc2Cl)Cc2cc(C(=O)NO)ccc2N1	100 to 500 nM
O=C1CN(Cc2cc(F)ccc2F)Cc2cc(C(=O)NO)ccc2N1	100 to 500 nM
CN(C)Cc1cccc(CN2CC(=O)Nc3ccc(C(=O)NO)cc3C2)c1	> 500 nM
O=C1CN(Cc2cccc(Cl)c2)Cc2cc(C(=O)NO)ccc2N1	100 to 500 nM
O=C1CN(Cc2cc(F)cc(F)c2)Cc2cc(C(=O)NO)ccc2N1	100 to 500 nM
N#Cc1ccc(CN2CC(=O)Nc3ccc(C(=O)NO)cc3C2)cc1	100 to 500 nM
O=C(NO)c1ccc2c(c1)OCCN(CC1CCCCC1)C2	100 to 500 nM
O=C1CN(CC2CC2)Cc2cc(C(=O)NO)ccc2N1	100 to 500 nM
O=C1CN(Cc2nccs2)Cc2cc(C(=O)NO)ccc2N1	> 500 nM
O=C1CN(Cc2cccc(OC(F)(F)F)c2)Cc2cc(C(=O)NO)ccc2N1	100 to 500 nM
O=C1CN(Cc2cccc(Oc3ccccc3)c2)Cc2cc(C(=O)NO)ccc2N1	100 to 500 nM
O=C1CN(Cc2ccc(OC(F)(F)F)cc2)Cc2cc(C(=O)NO)ccc2N1	100 to 500 nM
CC(C)c1ccc(CN2CC(=O)Nc3ccc(C(=O)NO)cc3C2)nc1	100 to 500 nM
O=C1CN(CC2CCOC2)Cc2cc(C(=O)NO)ccc2N1 (centres unmarked)	> 500 nM
O=C1CN(Cc2ccccn2)Cc2cc(C(=O)NO)ccc2N1	> 500 nM
O=C1CN(Cc2cccnc2)Cc2cc(C(=O)NO)ccc2N1	100 to 500 nM
O=C1CN(Cc2ccncc2)Cc2cc(C(=O)NO)ccc2N1	100 to 500 nM
O=C1CN(Cc2cncnc2)Cc2cc(C(=O)NO)ccc2N1	> 500 nM
COCCn1c(N2CCOc3ccc(C(=O)NO)cc3C2)nc2ccccc21	100 to 500 nM
COc1ccc(CCN2CC(=O)Nc3ccc(C(=O)NO)cc3C2)cc1	100 to 500 nM
COc1ccc(CCN2CCOc3ccc(C(=O)NO)cc3C2)cc1	> 500 nM
COc1ccc(CCN2CCOc3cc(C(=O)NO)ccc3C2)cc1	100 to 500 nM
COc1ccc(CCN2CCOc3cc(C(=O)NO)ccc3C2=O)cc1	100 to 500 nM

Compound	IC50
COc1ccc(S(=O)(=O)N2CC(=O)Nc3ccc(C(=O)NO)cc3C2)cc1	> 500 nM
COc1ccc(S(=O)(=O)N2CCOc3cc(C(=O)NO)cnc3C2)cc1	100 to 500 nM
COc1ccc(S(=O)(=O)N2CCOc3nc(C(=O)NO)ccc3C2)cc1	> 500 nM
COc1ccc(S(=O)(=O)N2CCOc3ccc(C(=O)NO)cc3C2)cc1	100 to 500 nM
COc1ccc(S(=O)(=O)N2CCOc3cc(C(=O)NO)ccc3C2)cc1	100 to 500 nM
COc1ccc(CN2CC(=O)N(C)c3ccc(C(=O)NO)cc3C2)cc1	> 500 nM
COCCn1c(CN2CCOc3cc(C(=O)NO)ccc3C2)nc2ccccc21	100 to 500 nM
COCCn1c(CN2CCOc3ccc(C(=O)NO)cc3C2)nc2ccccc21	> 500 nM
Cn1ccnc1CN1CC(=O)Nc2ccc(C(=O)NO)cc2C1	100 to 500 nM
COc1ccc(CN2CCN(C)c3ccc(C(=O)NO)cc3C2)cc1	> 500 nM
COc1ccc(CN2CC(=O)Nc3ccc(C(=O)NO)cc3C2)cc1	100 to 500 nM
COc1ccc(CN2CCOc3cc(C(=O)NO)cnc3C2)cc1	100 to 500 nM
COc1ccc(CN2CCOc3nc(C(=O)NO)ccc3C2)cc1	> 500 nM
COc1ccc(CN2CCOc3ccc(C(=O)NO)cc3C2)cc1	> 500 nM
COc1ccc(CN2CCOc3cc(C(=O)NO)ccc3C2)cc1	100 to 500 nM
COc1ccc(CN2CCNc3ccc(C(=O)NO)cc3C2)cc1	> 500 nM
COc1ccc(CN2CCOc3ccc(C(=O)NO)cc3C2=O)cc1	> 500 nM
COc1ccc(CN2CCOc3cc(C(=O)NO)ccc3C2=O)cc1	100 to 500 nM
COc1ccc(NC(=O)N2CCOc3ccc(C(=O)NO)cc3C2)cc1	> 500 nM
COc1ccc(NC(=O)N2CCOc3cc(C(=O)NO)ccc3C2)cc1	100 to 500 nM
C[C@@H]1COc2cc(C(=O)NO)ccc2CN1c1ccccc1	100 to 500 nM
COc1ccc(S(=O)(=O)N2Cc3ccc(C(=O)NO)cc3OC[C@H]2C)cc1	> 500 nM
COc1ccc(NC(=O)N2Cc3ccc(C(=O)NO)cc3OC[C@H]2C)cc1	100 to 500 nM
COc1ccc(S(=O)(=O)N2Cc3ccc(C(=O)NO)cc3OC[C@@H]2C)cc1	100 to 500 nM
COc1ccc(CN2CCOc3ccc(C(=O)NO)cc3C2C)cc1 (centres unmarked)	> 500 nM

Other lines, results leading:

IC50	Compound
100 to 500 nM	O=C(NO)c1ccc2c(c1)S(=O)(=O)N(Cc1ccccc1)CCO2
≤ 100 nM	O=C(NO)c1ccc2c(c1)OCCN(c1nc3ccccc3[nH]1)C2
100 to 500 nM	O=C(NO)c1ccc2c(c1)CN(c1nc3ccccc3[nH]1)CCO2
≤ 100 nM	O=C1CN(Cc2nc3ccccc3[nH]2)Cc2cc(C(=O)NO)ccc2N1
100 to 500 nM	O=C1CN(Cc2nc3ccccc3[nH]2)Cc2ccc(C(=O)NO)cc2N1
≤ 100 nM	O=C(NO)c1ccc2c(c1)OCCN(Cc1nc3ccccc3[nH]1)C2
100 to 500 nM	O=C(NO)c1ccc2c(c1)OCCN(c1nc3ccccc3s1)C2
100 to 500 nM	O=C(NO)c1ccc2c(c1)OCCN(c1ccc(Cl)c(Cl)c1)C2
100 to 500 nM	N#Cc1ccc(N2CCOc3cc(C(=O)NO)ccc3C2)cc1C(F)(F)F
≤ 100 nM	O=C1CN(Cc2coc(-c3cccc(F)c3)n2)Cc2cc(C(=O)NO)ccc2N1
≤ 100 nM	COc1ccc(CN2CC(=O)Nc3ccc(C(=O)NO)cc3C2)c(F)c1
≤ 100 nM	O=C1CN(Cc2cccc3c2OC(F)(F)O3)Cc2cc(C(=O)NO)ccc2N1
≤ 100 nM	O=C1CN(Cc2cc(Cl)cc(Cl)c2)Cc2cc(C(=O)NO)ccc2N1
≤ 100 nM	O=C1CN(Cc2ccc(Cl)cc2)Cc2cc(C(=O)NO)ccc2N1
≤ 100 nM	CC(c1ccccc1)N1CC(=O)Nc2ccc(C(=O)NO)cc2C1 (centres unmarked)
≤ 100 nM	O=C1CN(Cc2ccccc2OC(F)(F)F)Cc2cc(C(=O)NO)ccc2N1
≤ 100 nM	O=C1CN(Cc2ccc(-n3cccn3)cc2)Cc2cc(C(=O)NO)ccc2N1
≤ 100 nM	CC(C)c1ccc(CN2CC(=O)Nc3ccc(C(=O)NO)cc3C2)cc1
≤ 100 nM	CC(C)Oc1ccc(CN2CC(=O)Nc3ccc(C(=O)NO)cc3C2)cc1
≤ 100 nM	O=C1CN(Cc2ccc(-c3ccccn3)cc2)Cc2cc(C(=O)NO)ccc2N1
≤ 100 nM	O=C1CN(Cc2ccc(Oc3ccccc3)cc2)Cc2cc(C(=O)NO)ccc2N1
≤ 100 nM	COCCn1c(N2CCOc3cc(C(=O)NO)ccc3C2)nc2ccccc21
≤ 100 nM	O=C1CN(Cc2cn3ccccc3n2)Cc2cc(C(=O)NO)ccc2N1
≤ 100 nM	O=C1CN(Cc2cccc3ccccc23)Cc2cc(C(=O)NO)ccc2N1
≤ 100 nM	COc1ccc(NC(=O)N2CCOc3cc(C(=O)NO)cnc3C2)cc1
≤ 100 nM	COc1ccc(CN2Cc3ccc(C(=O)NO)cc3OC[C@H]2C)cc1
≤ 100 nM	C[C@H]1COc2cc(C(=O)NO)ccc2CN1c1ccccc1
≤ 100 nM	COc1ccc(CN2Cc3ccc(C(=O)NO)cc3OC[C@@H]2C)cc1
≤ 100 nM	COc1ccc(NC(=O)N2Cc3ccc(C(=O)NO)cc3OC[C@@H]2C)cc1
